Columns and labels:
PARP7 = target: T1, PARP7 (Homo sapiens, UniProt Q7Z3E1); assay: Probe Displacement Assay for PARP7 (MSD electrochemiluminescent, biotinylated probe RBNO11147); conditions: displacement of biotinylated probe RBNO11147 from PARP7 NAD+-binding site; read-out: MSD ProbeDisp PARP7 IC50
T1 sequence (Q7Z3E1 1-657): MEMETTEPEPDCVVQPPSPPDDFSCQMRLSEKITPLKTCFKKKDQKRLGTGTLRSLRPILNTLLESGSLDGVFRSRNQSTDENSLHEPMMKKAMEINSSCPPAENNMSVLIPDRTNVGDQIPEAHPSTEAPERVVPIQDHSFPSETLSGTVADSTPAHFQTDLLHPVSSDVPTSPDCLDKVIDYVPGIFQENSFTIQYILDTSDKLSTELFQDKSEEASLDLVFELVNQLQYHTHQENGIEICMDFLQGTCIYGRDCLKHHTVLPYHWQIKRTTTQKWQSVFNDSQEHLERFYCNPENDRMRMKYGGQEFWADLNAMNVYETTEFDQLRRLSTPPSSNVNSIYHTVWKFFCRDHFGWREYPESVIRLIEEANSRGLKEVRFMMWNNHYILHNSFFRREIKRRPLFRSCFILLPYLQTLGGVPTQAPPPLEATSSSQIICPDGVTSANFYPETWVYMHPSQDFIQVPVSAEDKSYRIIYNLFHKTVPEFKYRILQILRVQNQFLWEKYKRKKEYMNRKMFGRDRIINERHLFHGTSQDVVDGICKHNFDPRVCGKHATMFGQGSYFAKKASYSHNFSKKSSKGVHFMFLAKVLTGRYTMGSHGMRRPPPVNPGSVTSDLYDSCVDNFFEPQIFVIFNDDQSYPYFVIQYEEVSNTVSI

[1] = test system: endogenous cellular STAT1 (phosphorylated at Tyr701) in NCI-H1373 cells; assay: Phospho-STAT1 (Tyr701) LANCE Ultra TR-FRET Detection Assay; assay type: cell-based; conditions: Homo sapiens, NCI-H1373, 48 h, phospho-STAT1 (Tyr701) induction, read-out: NH1373 pSTAT1 EC50

SMILES	IC50 (PARP7)	EC50 [1]
C[C@@H](CCCn1ccc2cc(-c3ccccn3)c(F)cc2c1=O)Nc1cn[nH]c(=O)c1C(F)(F)F [Example 31, 7-fluoro-2-[(4S)-4-[[6-oxo-5-(trifluoromethyl)-1H-pyridazin-4-yl]amino]pentyl]-6-(2-pyridyl)isoquinolin-1-one]	0.0002 µM	2.18 µM
C[C@@H](CCCn1ccc2cc(-c3ncc(F)cn3)c(F)cc2c1=O)Nc1cn[nH]c(=O)c1C(F)(F)F [Example 34, 7-fluoro-6-(5-fluoropyrimidin-2-yl)-2-[(4S)-4-[[6-oxo-5-(trifluoromethyl)-1H-pyridazin-4-yl]amino]pentyl]isoquinolin-1-one]	0.0006 µM	0.429 µM
C[C@@H](CCCn1ccc2cc(-c3ccc(F)cn3)c(F)cc2c1=O)Nc1cn[nH]c(=O)c1C(F)(F)F [Example 35, 7-fluoro-6-(5-fluoro-2-pyridyl)-2-[(4S)-4-[[6-oxo-5-(trifluoromethyl)-1H-pyridazin-4-yl]amino]pentyl]isoquinolin-1-one]	0.0005 µM	0.436 µM
O=c1[nH]ncc(N[C@H](CCCn2ccc3cc(-c4ncc(C(F)(F)F)cn4)c(F)cc3c2=O)C2CC2)c1C(F)(F)F [Example 36, 2-[(4R)-4-cyclopropyl-4-[[6-oxo-5-(trifluoromethyl)-1H-pyridazin-4-yl]amino]butyl]-7-fluoro-6-[5-(trifluoromethyl)pyrimidin-2-yl]isoquinolin-1-one]	0.0007 µM	0.0741 µM
CC[C@@H](CCCn1ccc2cc(-c3ncc(C(F)(F)F)cn3)c(F)cc2c1=O)Nc1cn[nH]c(=O)c1C(F)(F)F [Example 37, 7-fluoro-2-[(4S)-4-[[6-oxo-5-(trifluoromethyl)-1H-pyridazin-4-yl]amino]hexyl]-6-[5-(trifluoromethyl)pyrimidin-2-yl]isoquinolin-1-one]	0.0004 µM	0.0427 µM
C[C@@H](CCCn1ccc2cc(-c3ccc(C4(C#N)CC4)cn3)cc(F)c2c1=O)Nc1cn[nH]c(=O)c1C(F)(F)F [Example 38, 1-[6-[8-fluoro-1-oxo-2-[(4S)-4-[[6-oxo-5-(trifluoromethyl)-1H-pyridazin-4-yl]amino]pentyl]-6-isoquinolyl]-3-pyridyl]cyclopropanecarbonitrile]	0.0003 µM	0.579 µM
C[C@@H](CCCn1ccc2cc(-c3ccc(C4(C(F)(F)F)CC4)cn3)cc(F)c2c1=O)Nc1cn[nH]c(=O)c1C(F)(F)F [Example 39, 8-fluoro-2-[(4S)-4-[[6-oxo-5-(trifluoromethyl)-1H-pyridazin-4-yl]amino]pentyl]-6-[5-[1-(trifluoromethyl)cyclopropyl]-2-pyridyl]isoquinolin-1-one]	0.0025 µM	0.89 µM
C[C@@H](CCCn1ccc2cc(-c3ccc(S(C)(=N)=O)cn3)cc(F)c2c1=O)Nc1cn[nH]c(=O)c1C(F)(F)F (stereo partly drawn) [Example 40, 8-fluoro-6-[5-(methylsulfonimidoyl)-2-pyridyl]-2-[(4S)-4-[[6-oxo-5-(trifluoromethyl)-1H-pyridazin-4-yl]amino]pentyl]isoquinolin-1-one]	0.0027 µM	10 µM
C[C@@H](CCCn1ccc2cc(-c3ccc(CC(F)(F)F)cn3)cc(F)c2c1=O)Nc1cn[nH]c(=O)c1C(F)(F)F [Example 41, 8-fluoro-2-[(4S)-4-[[6-oxo-5-(trifluoromethyl)-1H-pyridazin-4-yl]amino]pentyl]-6-[5-(2,2,2-trifluoroethyl)-2-pyridyl]isoquinolin-1-one]	0.0037 µM	0.144 µM
C[C@@H](CCCn1ccc2cc(-c3ncc(OC(F)F)cn3)c(F)cc2c1=O)Nc1cn[nH]c(=O)c1C(F)(F)F [Example 42, 6-[5-(difluoromethoxy)pyrimidin-2-yl]-7-fluoro-2-[(4S)-4-[[6-oxo-5-(trifluoromethyl)-1H-pyridazin-4-yl]amino]pentyl]isoquinolin-1-one]	0.001 µM	0.133 µM
C[C@@H](CCCn1ccc2cc(-c3ncc(C(F)(F)F)cn3)c(Cl)cc2c1=O)Nc1cn[nH]c(=O)c1C(F)(F)F [Example 44, 7-chloro-2-[(4S)-4-[[6-oxo-5-(trifluoromethyl)-1H-pyridazin-4-yl]amino]pentyl]-6-[5-(trifluoromethyl)pyrimidin-2-yl]isoquinolin-1-one]	0.00067 µM	10 µM
Cc1cc2cc(-c3ncc(C(F)(F)F)cn3)ccc2c(=O)n1CCC[C@H](C)Nc1cn[nH]c(=O)c1C(F)(F)F [Example 45, 3-methyl-2-[(4S)-4-[[6-oxo-5-(trifluoromethyl)-1H-pyridazin-4-yl]amino]pentyl]-6-[5-(trifluoromethyl)pyrimidin-2-yl]isoquinolin-1-one]	0.00119 µM	0.617 µM
O=c1[nH]ncc(N2C[C@H]3C[C@H]3[C@H]2CCCn2ccc3nc(-c4ccc(C(F)(F)F)cn4)ccc3c2=O)c1C(F)(F)F [Example 47, 6-[3-[(1R,2R,5S)-3-[6-oxo-5-(trifluoromethyl)-1H-pyridazin-4-yl]-3-azabicyclo[3.1.0]hexan-2-yl]propyl]-2-[5-(trifluoromethyl)-2-pyridyl]-1,6-naphthyridin-5-one]	0.00127 µM	10 µM
O=c1[nH]ncc(N2C[C@H]3C[C@H]3[C@H]2CCCn2ccc3cc(-c4ccc(C(F)(F)F)cn4)cc(F)c3c2=O)c1C(F)(F)F [Example 48, 8-fluoro-2-[3-[(1R,2R,5S)-3-[6-oxo-5-(trifluoromethyl)-1H-pyridazin-4-yl]-3-azabicyclo[3.1.0]hexan-2-yl]propyl]-6-[5-(trifluoromethyl)-2-pyridyl]isoquinolin-1-one]	0.000897 µM	0.338 µM
C[C@@H](CCCn1ccc2cc(-c3ccc(F)cn3)c(F)c(F)c2c1=O)Nc1cn[nH]c(=O)c1C(F)(F)F [Example 52, (S)-7,8-difluoro-6-(5-fluoropyridin-2-yl)-2-(4-((6-oxo-5-(trifluoromethyl)-1,6-dihydropyridazin-4-yl)amino)pentyl)isoquinolin-1(2H)-one]	0.000763 µM	0.164 µM
C[C@@H](CCCn1ccc2cc(-c3ncc(F)cn3)c(F)c(F)c2c1=O)Nc1cn[nH]c(=O)c1C(F)(F)F [Example 54, (S)-7,8-difluoro-6-(5-fluoropyrimidin-2-yl)-2-(4-((6-oxo-5-(trifluoromethyl)-1,6-dihydropyridazin-4-yl)amino)pentyl)isoquinolin-1(2H)-one]	0.000685 µM	0.156 µM

Further compounds by falling IC50 (PARP7), results first:

IC50 (PARP7)	EC50 [1]	SMILES
0.0026 µM	0.187 µM	C[C@@H](CCCn1ccc2cc(-c3ccc(OC(F)(F)F)cn3)c(F)cc2c1=O)Nc1cn[nH]c(=O)c1C(F)(F)F [Example 32, 7-fluoro-2-[(4S)-4-[[6-oxo-5-(trifluoromethyl)-1H-pyridazin-4-yl]amino]pentyl]-6-[5-(trifluoromethoxy)-2-pyridyl]isoquinolin-1-one]
0.00213 µM	2.76 µM	C[C@@H](CCCn1ccc2cc(-c3ccc(C(N)C(F)(F)F)cn3)c(F)cc2c1=O)Nc1cn[nH]c(=O)c1C(F)(F)F (stereo partly drawn) [Example 50, 6-[5-(1-amino-2,2,2-trifluoro-ethyl)-2-pyridyl]-7-fluoro-2-[(4S)-4-[[6-oxo-5-(trifluoromethyl)-1H-pyridazin-4-yl]amino]pentyl]isoquinolin-1-one]
0.000824 µM	0.432 µM	Cc1cn(CCC[C@H](C)Nc2cn[nH]c(=O)c2C(F)(F)F)c(=O)c2ccc(-c3ncc(C(F)(F)F)cn3)cc12 [Example 46, 4-methyl-2-[(4S)-4-[[6-oxo-5-(trifluoromethyl)-1H-pyridazin-4-yl]amino]pentyl]-6-[5-(trifluoromethyl)pyrimidin-2-yl]isoquinolin-1-one]
0.00076 µM	0.311 µM	C[C@@H](CCCn1ccc2cc(-c3ccc(OC(F)F)cn3)c(F)cc2c1=O)Nc1cn[nH]c(=O)c1C(F)(F)F [Example 43, 6-[5-(difluoromethoxy)-2-pyridyl]-7-fluoro-2-[(4S)-4-[[6-oxo-5-(trifluoromethyl)-1H-pyridazin-4-yl]amino]pentyl]isoquinolin-1-one]
0.0005 µM	0.168 µM	C[C@@H](CCCn1ccc2cc(-c3ccc(C(F)F)cn3)c(F)cc2c1=O)Nc1cn[nH]c(=O)c1C(F)(F)F [Example 33, 6-[5-(difluoromethyl)-2-pyridyl]-7-fluoro-2-[(4S)-4-[[6-oxo-5-(trifluoromethyl)-1H-pyridazin-4-yl]amino]pentyl]isoquinolin-1-one]
0.000496 µM	0.017 µM	C[C@@H](CCCn1ccc2cc(-c3ncc(C(F)F)cn3)c(F)c(F)c2c1=O)Nc1cn[nH]c(=O)c1C(F)(F)F [Example 53, (S)-6-(5-(difluoromethyl)pyrimidin-2-yl)-7,8-difluoro-2-(4-((6-oxo-5-(trifluoromethyl)-1,6-dihydropyridazin-4-yl)amino)pentyl)isoquinolin-1(2H)-one]
0.000413 µM	0.0541 µM	C[C@@H](CCCn1ccc2cc(-c3cc(N)c(C(F)(F)F)cn3)c(F)cc2c1=O)Nc1cn[nH]c(=O)c1C(F)(F)F [Example 49, 6-[4-amino-5-(trifluoromethyl)-2-pyridyl]-7-fluoro-2-[(4S)-4-[[6-oxo-5-(trifluoromethyl)-1H-pyridazin-4-yl]amino]pentyl]isoquinolin-1-one]

— patent publication US12459922B2 (Gilead Sciences, Inc., priority 2022, dated 2025)
